Data as given in ChEMBL document CHEMBL4673406, “Discovery and Preclinical Evaluation of BMS-986242, a Potent, Selective Inhibitor of Indoleamine-2,3-dioxygenase 1” (ACS Med Chem Lett, 2021).
pEC50, pIC50: −log10 of the molar value.

How the values were obtained:
[1] = species on record: Homo sapiens; experiment: Inhibition of sodium channel (unknown origin) at 10 uM and 1 to 4 Hz by patch clamp method relative to control
[2] = Toxicity in rat assessed as effect on cardiovascular system by telemetry; conditions: in vivo
[3] = Metabolic stability in mouse hepatocytes assessed as CYP450-mediated compound metabolism by measuring half life; type: ADME, cell-based, Hepatocyte
[4] = target: Cytochrome P450 2C9 (Homo sapiens, UniProt P11712); experiment: Inhibition of human CYP2C9; type: ADME
Cytochrome P450 2C9, sequence (P11712 whole entry): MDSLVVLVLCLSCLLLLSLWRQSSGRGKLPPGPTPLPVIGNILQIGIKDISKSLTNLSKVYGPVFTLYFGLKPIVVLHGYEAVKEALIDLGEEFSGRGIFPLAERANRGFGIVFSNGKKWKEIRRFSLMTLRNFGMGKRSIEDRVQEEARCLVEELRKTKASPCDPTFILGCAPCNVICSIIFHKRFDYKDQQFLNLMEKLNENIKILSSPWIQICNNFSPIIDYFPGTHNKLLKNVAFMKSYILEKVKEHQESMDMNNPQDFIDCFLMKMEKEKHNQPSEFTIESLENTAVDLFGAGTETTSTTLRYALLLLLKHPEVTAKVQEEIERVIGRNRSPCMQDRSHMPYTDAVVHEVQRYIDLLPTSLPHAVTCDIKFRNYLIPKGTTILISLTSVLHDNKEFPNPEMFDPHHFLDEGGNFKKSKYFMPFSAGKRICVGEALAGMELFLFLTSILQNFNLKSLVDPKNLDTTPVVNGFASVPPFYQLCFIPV

[5] = target: Indoleamine 2,3-dioxygenase 1 (Homo sapiens, UniProt P14902); experiment: Inhibition of IDO1 in IFNgamma-stimulated human HeLa cells preincubated for 2 hrs followed by IFNgamma stimulation and measured after 18 hrs by
Indoleamine 2,3-dioxygenase 1, sequence (P14902 whole entry): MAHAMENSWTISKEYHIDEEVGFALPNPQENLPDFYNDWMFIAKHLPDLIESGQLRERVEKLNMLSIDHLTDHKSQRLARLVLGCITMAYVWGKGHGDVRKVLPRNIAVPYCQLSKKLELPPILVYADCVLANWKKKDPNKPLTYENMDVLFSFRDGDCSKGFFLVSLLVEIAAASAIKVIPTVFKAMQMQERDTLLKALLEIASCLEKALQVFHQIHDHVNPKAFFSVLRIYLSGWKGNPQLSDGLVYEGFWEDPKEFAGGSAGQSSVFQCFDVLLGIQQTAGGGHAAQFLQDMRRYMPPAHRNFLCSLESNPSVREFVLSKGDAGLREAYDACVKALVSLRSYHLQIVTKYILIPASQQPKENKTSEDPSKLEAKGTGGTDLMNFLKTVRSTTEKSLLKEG

[6] = AUC (0 to 24 hrs) in nu/nu mouse xenografted with human SK-OV-3 cells measured in tumor at 30 mg/kg, po qd by uHPLC-MS/MS analysis; type: ADME, organism-based; parameters: time < 24 hr, route oral, dose 30 mg/kg
[7] = Inhibition of calcium channel (unknown origin) by patch clamp method; parameters: species or system Homo sapiens
[8] = Volume of distribution at steady state in rat at 0.5 mg/kg, iv; type: ADME, organism-based; conditions: in vivo
[9] = in vitro; conditions: mouse, liver microsomes
Description: Metabolic stability in mouse liver microsomes assessed as parent compound remaining at 0.5 uM measured after 10 mins

[10] = AUC in mouse at 0.5 mg/kg, iv; type: ADME, organism-based; parameters: dose 0.5 mg/kg; conditions: in vivo
[11] = AUC in mouse at 6 mg/kg, po; type: ADME, organism-based; parameters: dose 6 mg/kg; conditions: in vivo
[12] = Half life in dog at 1 mg/kg, iv; type: ADME, organism-based, Canis lupus familiaris; conditions: in vivo
[13] = Metabolic stability in mouse hepatocytes assessed as UGT-mediated compound glucuronidation by measuring half life; type: ADME, cell-based, Hepatocyte
[14] = target: alpha7 nAChR (Homo sapiens, UniProt P36544); experiment: Inhibition of alpha7 nAChR (unknown origin) relative to control; conditions: read-out: Imax
alpha7 nAChR, sequence (P36544 whole entry): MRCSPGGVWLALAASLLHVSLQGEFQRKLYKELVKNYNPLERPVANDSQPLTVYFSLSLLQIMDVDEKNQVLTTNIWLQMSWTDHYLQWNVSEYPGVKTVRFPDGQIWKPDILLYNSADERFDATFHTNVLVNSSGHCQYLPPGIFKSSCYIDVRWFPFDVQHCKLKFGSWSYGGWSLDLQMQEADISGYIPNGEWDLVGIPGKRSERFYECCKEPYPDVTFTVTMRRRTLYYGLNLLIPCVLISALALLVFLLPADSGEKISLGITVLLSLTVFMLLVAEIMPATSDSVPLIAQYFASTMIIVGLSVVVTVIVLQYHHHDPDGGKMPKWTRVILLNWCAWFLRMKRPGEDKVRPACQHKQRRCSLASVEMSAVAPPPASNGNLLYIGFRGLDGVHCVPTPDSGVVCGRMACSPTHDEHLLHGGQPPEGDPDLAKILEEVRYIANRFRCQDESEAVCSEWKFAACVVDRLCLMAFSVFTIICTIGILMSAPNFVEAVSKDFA

[15] = target: Acetylcholine receptor subunit alpha (Homo sapiens, UniProt P02708); experiment: Inhibition of alpha1 nAChR (unknown origin)
Acetylcholine receptor subunit alpha, sequence (P02708 whole entry): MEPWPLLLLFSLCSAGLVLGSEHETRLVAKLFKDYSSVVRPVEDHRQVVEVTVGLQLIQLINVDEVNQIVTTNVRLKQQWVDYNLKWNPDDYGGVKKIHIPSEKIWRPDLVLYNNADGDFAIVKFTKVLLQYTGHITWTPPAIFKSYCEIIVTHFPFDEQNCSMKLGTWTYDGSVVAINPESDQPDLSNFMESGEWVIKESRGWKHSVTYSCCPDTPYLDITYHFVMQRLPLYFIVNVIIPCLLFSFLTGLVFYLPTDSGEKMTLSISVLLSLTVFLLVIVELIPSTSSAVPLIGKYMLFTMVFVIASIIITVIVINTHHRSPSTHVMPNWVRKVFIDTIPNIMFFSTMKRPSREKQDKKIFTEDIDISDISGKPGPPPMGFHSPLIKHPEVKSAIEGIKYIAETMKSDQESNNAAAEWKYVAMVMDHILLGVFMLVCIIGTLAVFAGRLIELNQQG

[16] = AUC in cynomolgus monkey at 5 mg/kg, po; type: ADME, organism-based, Macaca fascicularis; parameters: dose 5 mg/kg; conditions: in vivo
[17] = target: T1, Nuclear receptor subfamily 1 group I member 2 (Homo sapiens, UniProt O75469); experiment: Transactivation of PXR (unknown origin); type: ADME
T1 sequence (O75469 whole entry): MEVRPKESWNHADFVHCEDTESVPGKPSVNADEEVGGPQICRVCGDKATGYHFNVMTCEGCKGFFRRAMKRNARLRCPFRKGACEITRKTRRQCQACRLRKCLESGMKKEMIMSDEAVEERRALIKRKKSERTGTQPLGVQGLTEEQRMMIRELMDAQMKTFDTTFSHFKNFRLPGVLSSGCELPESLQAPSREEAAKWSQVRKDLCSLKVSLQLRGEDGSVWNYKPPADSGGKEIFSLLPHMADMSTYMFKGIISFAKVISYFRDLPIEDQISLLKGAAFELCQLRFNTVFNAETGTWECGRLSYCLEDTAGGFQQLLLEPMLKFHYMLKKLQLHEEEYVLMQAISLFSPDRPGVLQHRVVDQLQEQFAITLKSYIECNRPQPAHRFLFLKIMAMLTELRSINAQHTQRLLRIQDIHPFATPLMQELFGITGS

[18] = AUC in dog at 1 mg/kg, iv; type: ADME, organism-based, Canis lupus familiaris; parameters: dose 1 mg/kg; conditions: in vivo
[19] = Volume of distribution at steady state in dog at 1 mg/kg, iv; type: ADME, organism-based, Canis lupus familiaris; conditions: in vivo
[20] = Permeability across apical to basal side in human Caco-2 cells; type: ADME, cell-based; conditions: read-out: permeability
[21] = Permeability of the compound at pH 7.4 by PAMPA; type: ADME; conditions: read-out: permeability
[22] = Volume of distribution at steady state in cynomolgus monkey at 1 mg/kg, iv; type: ADME, organism-based, Macaca fascicularis; conditions: in vivo
[23] = Oral bioavailability in rat at 2 mg/kg; type: ADME, organism-based; conditions: in vivo
[24] = Metabolic stability in cynomolgus monkey hepatocytes assessed as UGT-mediated compound glucuronidation by measuring half life; type: ADME, cell-based, Macaca fascicularis, Hepatocyte
[25] = AUC in rat at 0.5 mg/kg, iv; type: ADME, organism-based; parameters: dose 0.5 mg/kg; conditions: in vivo
[26] = Metabolic stability in rat hepatocytes assessed as UGT-mediated compound glucuronidation by measuring half life; type: ADME, cell-based, Hepatocyte
[27] = Metabolic stability in cynomolgus monkey hepatocytes assessed as CYP450-mediated compound metabolism by measuring half life; type: ADME, cell-based, Macaca fascicularis, Hepatocyte
[28] = Half life in cynomolgus monkey at 1 mg/kg, iv; type: ADME, organism-based, Macaca fascicularis; conditions: in vivo
[29] = target: hERG (Homo sapiens, UniProt Q12809); experiment: Inhibition of human ERG at 10 uM by patch clamp method relative to control
hERG, sequence (Q12809 whole entry): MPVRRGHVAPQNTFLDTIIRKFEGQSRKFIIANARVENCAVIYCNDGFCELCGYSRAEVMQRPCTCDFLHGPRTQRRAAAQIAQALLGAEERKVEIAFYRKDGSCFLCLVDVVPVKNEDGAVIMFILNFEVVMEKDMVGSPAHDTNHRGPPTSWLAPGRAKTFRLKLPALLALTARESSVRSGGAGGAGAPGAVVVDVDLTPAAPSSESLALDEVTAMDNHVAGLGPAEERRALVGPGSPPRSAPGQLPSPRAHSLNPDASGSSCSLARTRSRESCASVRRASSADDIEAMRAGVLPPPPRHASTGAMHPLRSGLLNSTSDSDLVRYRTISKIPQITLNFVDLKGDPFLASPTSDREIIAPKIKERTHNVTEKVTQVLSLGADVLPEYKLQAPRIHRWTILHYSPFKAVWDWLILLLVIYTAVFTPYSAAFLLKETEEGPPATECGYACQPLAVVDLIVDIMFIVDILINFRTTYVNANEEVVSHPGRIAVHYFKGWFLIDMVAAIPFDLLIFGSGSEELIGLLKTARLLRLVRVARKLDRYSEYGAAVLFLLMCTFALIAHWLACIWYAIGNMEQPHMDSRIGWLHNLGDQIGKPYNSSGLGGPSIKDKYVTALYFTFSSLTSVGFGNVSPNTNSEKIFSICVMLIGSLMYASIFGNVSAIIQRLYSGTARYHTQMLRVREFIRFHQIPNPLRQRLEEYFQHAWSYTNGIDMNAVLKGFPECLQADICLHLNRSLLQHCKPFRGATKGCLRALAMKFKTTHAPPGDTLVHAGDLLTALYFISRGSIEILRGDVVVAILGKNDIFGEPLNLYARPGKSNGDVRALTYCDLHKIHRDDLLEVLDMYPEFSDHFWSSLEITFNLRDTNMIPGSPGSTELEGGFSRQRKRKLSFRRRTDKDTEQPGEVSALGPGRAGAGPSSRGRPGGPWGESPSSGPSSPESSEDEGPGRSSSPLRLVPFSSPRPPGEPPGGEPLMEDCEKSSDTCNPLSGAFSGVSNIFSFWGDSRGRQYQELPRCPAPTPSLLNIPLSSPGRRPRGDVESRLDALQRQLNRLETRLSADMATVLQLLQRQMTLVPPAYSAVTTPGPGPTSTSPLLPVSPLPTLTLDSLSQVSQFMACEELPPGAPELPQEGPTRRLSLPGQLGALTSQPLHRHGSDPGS

[30] = AUC in dog at 5 mg/kg, po; type: ADME, organism-based, Canis lupus familiaris; parameters: dose 5 mg/kg; conditions: in vivo
[31] = AUC in rat at 6 mg/kg, po; type: ADME, organism-based; parameters: dose 6 mg/kg; conditions: in vivo
[32] = target: UDP-glucuronosyltransferases (UGTs) (Homo sapiens, UniProt O60656+O75310+O75795+P06133+P0DTE4+P0DTE5+P16662+P19224+P22309+P22310+P35503+P35504+P36537+P54855+Q6UWM9+Q9BY64+Q9HAW7+Q9HAW8+Q9HAW9); experiment: Metabolic stability in human hepatocytes assessed as UGT-mediated compound glucuronidation by measuring half life; type: ADME, cell-based, Hepatocyte
[33] = target: Indoleamine 2,3-dioxygenase 1 (Mus musculus) (UniProt P28776); experiment: In vivo inhibition of IDO1 in nu/nu mouse xenografted with human SK-OV-3 cells assessed as reduction in kynurenine level at 10 mg/kg, po qd by HPLC-MS/MS analysis relative to control; type: functional, organism-based
Indoleamine 2,3-dioxygenase 1 (Mus musculus), sequence (P28776 whole entry, looked up): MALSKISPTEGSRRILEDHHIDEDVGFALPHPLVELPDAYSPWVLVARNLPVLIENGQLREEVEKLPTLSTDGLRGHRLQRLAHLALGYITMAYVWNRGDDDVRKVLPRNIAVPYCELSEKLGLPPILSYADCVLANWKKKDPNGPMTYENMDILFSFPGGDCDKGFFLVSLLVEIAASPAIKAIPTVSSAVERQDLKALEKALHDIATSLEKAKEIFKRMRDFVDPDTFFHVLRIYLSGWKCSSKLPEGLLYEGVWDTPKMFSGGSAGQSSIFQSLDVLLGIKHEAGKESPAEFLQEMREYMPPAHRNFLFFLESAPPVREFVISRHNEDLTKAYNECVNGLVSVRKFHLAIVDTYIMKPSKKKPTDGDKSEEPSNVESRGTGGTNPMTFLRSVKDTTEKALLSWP

[34] = AUC (0 to 24 hrs) in nu/nu mouse xenografted with human SK-OV-3 cells measured in tumor at 10 mg/kg, po qd by uHPLC-MS/MS analysis; type: ADME, organism-based; parameters: time < 24 hr, route oral, dose 10 mg/kg
[35] = AUC (0 to 24 hrs) in nu/nu mouse xenografted with human SK-OV-3 cells measured in tumor at 3 mg/kg, po qd by uHPLC-MS/MS analysis; type: ADME, organism-based; parameters: time < 24 hr, route oral, dose 3 mg/kg
[36] = Oral bioavailability in mouse at 6 mg/kg; type: ADME, organism-based; conditions: in vivo
[37] = Protein binding in human plasma assessed as free fraction; type: ADME, cell-free
[38] = target: Cytochrome P450 (Homo sapiens, UniProt P04798+P05177+P05181+P08684+P10632+P10635+P11509+P11712+P13584+P20813+P20815+P20853+P24462+P24903+P33260+P33261+P51589+P78329+P98187+Q02928+Q08477+Q16678+Q16696+Q5TCH4+Q6VVX0+Q7Z449+Q8TAV3+Q96SQ9+Q9HB55); experiment: Metabolic stability in human hepatocytes assessed as CYP450-mediated compound metabolism by measuring half life; type: ADME, cell-based, Hepatocyte
[39] = Oral bioavailability in cynomolgus monkey at 5 mg/kg; type: ADME, organism-based, Macaca fascicularis; conditions: in vivo
[40] = target: CYP450 (Homo sapiens, UniProt P04798+P05177+P05181+P08684+P10632+P10635+P11509+P11712+P13584+P20813+P20815+P20853+P24462+P24903+P33260+P33261+P51589+P78329+P98187+Q02928+Q08477+Q16678+Q16696+Q5TCH4+Q6VVX0+Q7Z449+Q8TAV3+Q96SQ9+Q9HB55); experiment: Inhibition of human CYP450; type: ADME, protein assay

inhibition [1]: < 20% | half-life [3]: 4 min | pIC50 [4]: 6.13 | pIC50 [5]: 8.70 | AUC at 24 h [6]: 61 µM·h | pIC50 [7]: < 4.60 | Vdss [8]: 0.97 L/kg | remaining at 10 min, 0.5 µM [9]: 21% | AUC [10]: 0.69 µM·h | AUC [11]: 12.6 µM·h | t1/2 [12]: 19 min | half-life [13]: > 120 min | Emax [14]: 20% | pIC50 [15]: 4.91 | AUC [16]: 7.1 µM·h | pEC50 [17]: < 4.30 | AUC [18]: 8.7 µM·h | Vdss [19]: 3.87 L/kg | Papp A→B [20]: 8.8 ×10⁻⁶ cm/s | Papp [21]: 283 ×10⁻⁶ cm/s | Vdss [22]: 1 L/kg | bioavailability [23]: 127% | half-life [24]: > 120 min | AUC [25]: 5.6 µM·h | half-life [26]: 93 min | half-life [27]: 2 min | t1/2 [28]: 2 min | AUC [30]: 17.4 µM·h | AUC [31]: 28.2 µM·h | half-life [32]: 120 min | inhibition [33]: 58% | AUC at 24 h [34]: 21.1 µM·h | AUC at 24 h [35]: 9.6 µM·h | F [36]: 152% | Fu [37]: < 0.3% | half-life [38]: 14 min | bioavailability [39]: 42% | pIC50 [40]: < 4.82
Compound: C[C@@H](NC(=O)c1ccc(Cl)cc1)[C@H]1CC[C@@H](c2ccnc3ccc(F)cc32)CC1
Activity [2]: Non-Toxic | inhibition at 10 µM [29]: 87%
